# Results: patent US9962341B2, “Active pharmaceutical ingredient (API) comprising cannabinoids for use in the treatment of cancer” (GW Pharma Limited, priority 2014, dated 2018)
# Key:
# Assay type in all cases: cell-based
# RT112 = test: Cell viability (CellTiter-Blue, 72 h), RT112 bladder cancer cells; settings: RT112, 1% FBS, 72 h; read-out: Cell line IC50 value
# Method: (§1) The following cell lines were tested in this example: Lung Cancer (A549, NCI-H460); Pancreatic cancer (PANC1, Mia-Pa-Ca-2); Melanoma (WM115, A375); Ovarian cancer (OVCAR3, SKOV3); Gastric cancer (MKN45, HGC-27); Renal cancer (ACHN) and Bladder Cancer (RT112).
# (§2) Each tumour cell line was maintained in vitro in RPMI 1640+10% heat inactivated FBS and 2 mM L-glutamine (growth media) at 37° C. in 5% CO2 and humidified conditions. The cells were harvested, washed, re-suspended into growth medium and counted. The cells were re-suspended into assay media (RPMI 1640+5% heat inactivated FBS+ and 2 mM L-glutamine) at 4×10^4 cells/ml (dependent upon cell type) and plated into the middle 240 wells of 384 well tissue culture plates (Corning CellBind, black-wall plates) 25 μl/well aliquots; 50 μl of growth media was aliquoted into the outer wells. There were 3 plates for each cell line.
# (§3) The plates were incubated overnight at 37° C., in 5% humidified CO2.
# (§4) The phytocannabinoid test compounds were prepared in 100% DMSO vehicle at a stock concentration of 20 and 40 mM.
# (§5) Starting with the 20 mM stock in DMSO, this was serially diluted (2 fold) in DMSO in a 96-well plate, to 20 (no dilution), 10, 5, 2.5, 1.25, 0.625, 0.315, 0.157 and […]. Following this, 10 ul of each compound dilution was diluted into 990 ul of 1% (v/v) FBS media in a deep well block making the final concentrations of 200, 100, 50, 25, 12.5, 6.25, 3.125, 1.56 and 0.79 μM (2× final assay concentrations and 1% DMSO).
# (§6) An equal volume of each cannabinoid in the combination (stock concentration 40 mM) was mixed together to make a stock of 20 mM of each cannabinoid in DMSO. This was serially diluted (2 fold) in DMSO in a 96-well plate, to 20 (no dilution), 10, 5, 2.5, 1.25, 0.625, 0.315, 0.157 and […]. Following this, 10 ul of each combination dilution was diluted into 990 ul of 1% (v/v) FBS media in a deep well block making the final concentrations of 200, 100, 50, 25, 12.5, 6.25, 3.125, 1.56 and 0.79 μM (2× final assay concentrations and 1% DMSO).
# (§7) Cisplatin (stock of 1 mg/ml=3.33 mM in water) was diluted in 1% FBS media to give a stock concentration of 1 mM. This was then diluted in 1% FBS media from the stock solution to 200 μM, then serially diluted (3-fold) in 1% FBS media to 200 (no dilution), 66.66, 22.22, 7.41, 2.47, 0.82, 0.27, 0.09, 0.03 μM (2× final assay concentrations; no DMSO).
# (§8) The plates were incubated for 72 h at 37° C. in 5% humidified CO2. To develop the plates, at 72 h, 10 μl of CellTiter-Blue™ reagent was added to each test/blank well.
# (§9) The plates were incubated at 37° C., 5% humidified CO2. Fluorescence was measured using a Flex II Station plate reader (570 nm excitation wavelength, 600 nm emission wavelength, 590 nm cut-off) after 3 h.
# (§10) The phytocannabinoid compounds CBD, CBGA, CBG, CBDA, THCV and THC were tested on a panel of lung (A549, NCI-H460), pancreatic (PANC1, Mia-Pa-Ca-2), melanoma (WM115, A375), ovarian (OVCAR3, SKOV3), gastric (MKN45, HGC-27), renal (ACHN) and bladder (RT112) cancer cell lines according to the protocol for 72 h in media containing 1% FBS.
# (§11) The IC50 values for each phytocannabinoid and combination of CBD with the other phytocannabinoids was calculated for each cell line. The raw data values expressed in relative fluorescent units were normalised to the vehicle for each individual plate and any reduction in fluorescence indicated a decrease in viability.
# (§12) This calculation was as described in Example 1 above.
# OVCAR3 = test: Cell viability (CellTiter-Blue, 72 h), OVCAR3 ovarian cancer cells; settings: OVCAR3, 1% FBS, 72 h; read-out: Cell line IC50 value
# Method: as §1, §2, §3, §4, §5, §6, §7, §8, §9, §10, §11, §12
# MKN45 = test: Cell viability (CellTiter-Blue, 72 h), MKN45 gastric cancer cells; settings: MKN45, 1% FBS, 72 h; read-out: Cell line IC50 value
# Method: as §1, §2, §3, §4, §5, §6, §7, §8, §9, §10, §11, §12
# SKOV3 = test: Cell viability (CellTiter-Blue, 72 h), SKOV3 ovarian cancer cells; settings: SKOV3, 1% FBS, 72 h; read-out: Cell line IC50 value
# Method: as §1, §2, §3, §4, §5, §6, §7, §8, §9, §10, §11, §12
# HGC-27 = test: Cell viability (CellTiter-Blue, 72 h), HGC-27 gastric cancer cells; settings: HGC-27, 1% FBS, 72 h; read-out: Cell line IC50 value
# Method: as §1, §2, §3, §4, §5, §6, §7, §8, §9, §10, §11, §12
# WM115 = test: Cell viability (CellTiter-Blue, 72 h), WM115 melanoma cells; settings: WM115, 1% FBS, 72 h; read-out: Cell line IC50 value
# Method: as §1, §2, §3, §4, §5, §6, §7, §8, §9, §10, §11, §12
# A375 = test: Cell viability (CellTiter-Blue, 72 h), A375 melanoma cells; settings: A375, 1% FBS, 72 h; read-out: Cell line IC50 value
# Method: as §1, §2, §3, §4, §5, §6, §7, §8, §9, §10, §11, §12
# PANC-1 = test: Cell viability (CellTiter-Blue, 72 h), PANC-1 pancreatic cancer cells; settings: Homo sapiens; PANC-1, 1% FBS, 72 h; read-out: Cell line IC50 value
# Method: as §1, §2, §3, §4, §5, §6
# (§13) Gemcitabine SOC was prepared in 100% DMSO to give a stock concentration of 20 mM. This was then serially diluted (3 fold) in DMSO in a 96-well plate, to 20 (no dilution), 6.6, 2.2, 0.741, 0.247, 0.082, 0.027, 0.009 and 0.003 mM. Following this, 10 ul of each dilution was further diluted into 990 ul of 1% (v/v) FBS media making the final concentrations of 200 (no dilution), 66.66, 22.22, 7.41, 2.47, 0.82, 0.27, 0.09, 0.03 μM (2× final assay concentrations and 1% DMSO).
# as §8, §9, §10, §11, §12
# Mia-Pa-Ca-2 = test: Cell viability (CellTiter-Blue, 72 h), Mia-Pa-Ca-2 pancreatic cancer cells; settings: Homo sapiens, MIA PaCa-2, 72 h, read-out: Cell line IC50 value
# Method: as §1, §2, §3, §4, §5, §6, §13, §8, §9, §10, §11, §12
smiles,measurement,setting,value
"N.N.[Cl][Pt][Cl] [Cisplatin, reference compound]",IC50,RT112,27 µM
same,IC50,OVCAR3,7.7 µM
same,IC50,MKN45,9.7 µM
same,IC50,SKOV3,4.5 µM
same,IC50,HGC-27,47 µM
same,IC50,WM115,35 µM
same,IC50,A375,6.3 µM
"Nc1ccn([C@@H]2O[C@H](CO)[C@@H](O)C2(F)F)c(=O)n1 [Gemcitabine, reference compound]",IC50,PANC-1,> 100 µM
same,IC50,Mia-Pa-Ca-2,> 100 µM
